Blank lines part the entries; values can stand above or below the compound they belong to.
Assays:
Homo sapiens [1] = species: Homo sapiens; assay: Fold shift in LTD4 dose response curve 3-5 hr after 5 days 450 mg bid; assay type: functional
Homo sapiens [2] = assay: Fold shift in LTD4 dose response curve 24 hr following 450 mg oral dose; assay type: functional
Homo sapiens [3] = species: Homo sapiens; assay: Fold shift in LTD4 dose response curve […] after 5 days of 450 mg bid; assay type: functional
Cavia porcellus [4] = species: Cavia porcellus; assay: Compound was tested in vitro for inhibitory activity against guinea pig neutrophil aggregation; assay type: functional
Oryctolagus cuniculus = assay: Compound was tested in vivo inhibitory activity against LTB4 induced neutropenia in rabbit (intravenous); assay type: functional
Homo sapiens [5] = species: Homo sapiens; assay: Compound was tested in vitro for inhibitory activity against human neutrophil chemotaxis.; assay type: functional
Homo sapiens [6] = species: Homo sapiens; assay: Compound was tested in vitro for inhibitory activity against human neutrophil aggregation.; assay type: functional
Cavia porcellus [7] = assay: Compound was tested in vivo inhibitory activity against LTB4 induced bronchoconstriction in guinea pig(orally) (20 hr pretreatment); assay type: functional; details: po
Cavia porcellus [8] = assay: Compound was tested in vivo for LTB4 induced bronchoconstriction in guinea pig (2 hr pretreatment).; assay type: functional
Cavia porcellus [9] = assay: Compound was tested in vivo inhibitory activity against LTB4 induced bronchoconstriction (orally); assay type: functional; details: po
[10] = biological target: T1, Leukotriene B4 receptor 1 (Homo sapiens, UniProt Q15722); assay: Compound was tested for inhibitory activity against human neutrophil LTB4 receptor binding
T1 sequence (Q15722 whole entry): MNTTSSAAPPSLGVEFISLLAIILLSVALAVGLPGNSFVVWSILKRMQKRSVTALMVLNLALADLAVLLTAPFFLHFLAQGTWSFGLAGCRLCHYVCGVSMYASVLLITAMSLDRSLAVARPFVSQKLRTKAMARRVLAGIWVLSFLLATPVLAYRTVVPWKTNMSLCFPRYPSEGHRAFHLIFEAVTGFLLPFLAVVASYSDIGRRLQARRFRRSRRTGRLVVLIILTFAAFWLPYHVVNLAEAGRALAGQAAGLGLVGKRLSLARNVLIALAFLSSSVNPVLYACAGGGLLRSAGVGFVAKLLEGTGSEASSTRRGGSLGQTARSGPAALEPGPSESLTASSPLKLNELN

Cavia porcellus [11] = assay: Compound was tested in vivo inhibitory activity against LTB4 induced bronchoconstriction (intravenous); assay type: functional
Homo sapiens [12] = species: Homo sapiens; assay: Compound was tested in vitro inhibitory activity against human neutrophil CD11b/CD18.; assay type: functional
Homo sapiens [13] = species: Homo sapiens; assay: Compound was tested in vitro inhibitory activity against LTB4 induced Ca mobilization; assay type: functional
[14] = biological target: T1, Leukotriene B4 receptor 1; assay: Compound was tested for inhibitory activity against Leukotriene B4 receptor binding
Mus musculus [15] = assay: Compound was tested in vivo inhibitory activity against AA induced ear edema and MPO release.; assay type: functional
Mus musculus [16] = assay: Compound was tested in vivo inhibitory activity against AA induced ear edema and MPO release (orally).; assay type: functional; details: po
Rattus norvegicus [17] = assay: Compound was tested in vivo inhibitory activity against rat neutropenia at 4h.; assay type: functional
Rattus norvegicus [18] = assay: Compound was tested in vivo inhibitory activity against rat neutropenia at 18 h.; assay type: functional
Homo sapiens [19] = species: Homo sapiens; assay: Compound was tested in vitro inhibitory activity against […] induced chemotaxis; assay type: functional, organism-based
Homo sapiens [20] = species: Homo sapiens; assay: Compound was tested in vitro inhibitory activity against […] induced aggregation.; assay type: functional, organism-based
Homo sapiens [21] = species: Homo sapiens; assay: Compound was tested in vitro inhibitory activity against […] induced CD11 up-regulation.; assay type: functional, organism-based
Homo sapiens [22] = species: Homo sapiens; assay: Compound was tested in vitro inhibitory activity against […] induced Ca mobilization.; assay type: functional, organism-based
Homo sapiens [23] = assay: Compound was tested in vivo inhibitory activity against CD11b up-regulation at 4 hours in normal volunteers.; assay type: functional
Homo sapiens [24] = species: Homo sapiens; assay: Compound was tested for fold shift in LTD4 dose response curve 2 hour following 100 microg aerosol dose in normal subjects.; assay type: functional
[25] = biological target: T2, Cysteinyl leukotriene receptor (Homo sapiens, UniProt Q9Y271+Q9NS75); assay: Binding affinity against Cysteinyl leukotriene D4 receptor; assay type: protein assay
T2 sequence (Q9Y271 whole entry): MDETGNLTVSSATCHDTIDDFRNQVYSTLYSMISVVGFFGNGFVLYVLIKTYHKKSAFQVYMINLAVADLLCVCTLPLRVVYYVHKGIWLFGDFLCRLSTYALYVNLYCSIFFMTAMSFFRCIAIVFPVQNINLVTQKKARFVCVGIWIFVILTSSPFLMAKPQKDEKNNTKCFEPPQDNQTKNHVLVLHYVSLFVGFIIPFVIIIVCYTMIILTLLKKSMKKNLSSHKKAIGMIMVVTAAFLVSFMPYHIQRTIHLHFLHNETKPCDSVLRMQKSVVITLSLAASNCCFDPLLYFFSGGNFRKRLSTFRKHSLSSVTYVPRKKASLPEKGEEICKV
T2 sequence (Q9NS75 whole entry): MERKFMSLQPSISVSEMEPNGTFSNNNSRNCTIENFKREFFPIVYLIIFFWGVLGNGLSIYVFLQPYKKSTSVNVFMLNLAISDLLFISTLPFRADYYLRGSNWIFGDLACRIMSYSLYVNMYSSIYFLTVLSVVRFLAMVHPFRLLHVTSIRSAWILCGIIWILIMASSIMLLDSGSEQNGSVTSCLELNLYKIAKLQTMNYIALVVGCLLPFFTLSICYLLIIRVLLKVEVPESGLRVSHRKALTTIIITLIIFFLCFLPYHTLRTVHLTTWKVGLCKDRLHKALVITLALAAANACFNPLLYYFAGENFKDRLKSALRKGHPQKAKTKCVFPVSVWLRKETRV

Homo sapiens [26] = species: Homo sapiens; assay: Compound was tested for fold shift in LTD4 dose response curve following 800 microg aerosol dose in mild asthmatics.; assay type: functional
Rattus norvegicus [27] = species: Rattus norvegicus; assay: Compound was tested for in vitro inhibition using FLAP binding assay
[28] = Compound was tested for in vivo inhibition against antigen bronchospasm.; assay type: functional; details: Rattus norvegicus, Bronchiole
RBL-1 = assay: Compound were tested for in vitro inhibition against broken RBL-1.; assay type: functional; details: Rattus norvegicus
[29] = Compound was determined in vivo in squirrel monkey antigen bronchospasm; details: Saimiri sciureus, Bronchiole
Homo sapiens [30] = species: Homo sapiens; assay: Compound were tested for in vitro inhibition against human whole blood.
Homo sapiens [31] = species: Homo sapiens; assay: Compound was tested in vitro inhibitory activity against 12-R-HETE induced Ca mobilization; assay type: functional
Homo sapiens [32] = species: Homo sapiens; assay: Compound was tested in vitro for inhibitory activity in LTB4 induced Ca mobilization.; assay type: functional, organism-based
[33] = biological target: T1, Leukotriene B4 receptor 1; assay: Compound was tested for binding affinity against human neutrophil LTB4 (leukotriene) receptor
Homo sapiens [34] = species: Homo sapiens; assay: Compound was tested in vitro inhibitory activity against LTB4 induced neutrophil degranulation; assay type: functional
Mus musculus [35] = assay: Compound was tested in vivo inhibitory activity against AA induced ear edema (topically); assay type: functional
Mus musculus [36] = assay: Compound was tested in vivo inhibitory activity against PMA induced ear edema; assay type: functional
Mus musculus [37] = assay: Compound was tested in vivo inhibitory activity against AA induced ear edema(orally); assay type: functional; details: po
Homo sapiens [38] = assay: Compound was tested for fold shift in LTD4 bronchoconstriction dose response curve following a 400 mg oral dose.; assay type: functional, Lung

SMILES: O=C(Nc1cccc2c(=O)cc(-c3nnn[nH]3)oc12)c1ccc(OCCCCc2ccccc2)cc1
Activity (Homo sapiens [1]): 28
Activity (Homo sapiens [2]): 7
Activity (Homo sapiens [3]): 26

IC50 (Cavia porcellus [4]): 74 nM
IC50 (Homo sapiens [5]): 6 nM
IC50 (Homo sapiens [6]): 100 nM
SMILES: COc1ccc(/C=C/CCCCOc2ccc(C(=O)c3cccc(C(=O)O)c3)cc2CCC(=O)O)cc1
ED50 (Oryctolagus cuniculus): 3 mg/kg

SMILES: CCCc1c(OCCCCCCc2cccc(OCCCCCC(=O)O)c2CCC(=O)O)ccc2c1OCCC2=O
ED50 (Cavia porcellus [7]): < 1 mg/kg
ED50 (Cavia porcellus [8]): < 0.1 mg/kg

Ki [10]: 25 nM
IC50 (Homo sapiens [12]): 3.9 nM
IC50 (Homo sapiens [13]): 20 nM
SMILES: CCCc1c(OCCCOc2cc(O)c(-c3ccc(F)cc3)cc2CC)cccc1Oc1ccccc1C(=O)O [ETALOCIB]
ED50 (Cavia porcellus [9]): 0.4 mg/kg
ED50 (Cavia porcellus [11]): 0.04 mg/kg

IC50 [14]: 4 nM
IC50 (Homo sapiens [19]): 2.4 nM
IC50 (Homo sapiens [20]): 0.1 nM
IC50 (Homo sapiens [21]): 0.3 nM
IC50 (Homo sapiens [22]): 2 nM
SMILES: COc1cc(C(=O)N(C(C)C)C(C)C)ccc1OCCCCCOc1ccc(C(=N)N)cc1 [MOXILUBANT]
ED50 (Mus musculus [15]): 1.4 mg/kg
ED50 (Mus musculus [16]): 1.8 mg/kg
ED50 (Rattus norvegicus [17]): 4 mg/kg
ED50 (Rattus norvegicus [18]): 11 mg/kg
ED100 (Homo sapiens [23]): 300 mg

Ki [25]: 5 nM
SMILES: O=C(O)CCS[C@H](c1ccccc1CCCCCCCCc1ccccc1)[C@@H](O)C(=O)O [POBILUKAST]
Activity (Homo sapiens [24]): 10
Activity (Homo sapiens [26]): 3

IC50 (Rattus norvegicus [27]): 1.6 nM
IC50 (RBL-1): 6 nM
IC50 (Homo sapiens [30]): 510 nM
SMILES: CC(C)(C)Sc1c(CC(C)(C)C(=O)[O-])n(Cc2ccc(Cl)cc2)c2ccc(OCc3ccc4ccccc4n3)cc12.[Na+] [QUIFLAPON SODIUM]
ED50 [28]: 0.16 mg/kg
ED50 [29]: 0.3 mg/kg
T1/2 (phase 1 oral half life): 6 h

IC50 (Homo sapiens [31]): 1.3 nM
IC50 (Homo sapiens [32]): 6.6 nM
Ki [33]: 0.8 nM
IC50 (Homo sapiens [34]): 117 nM
SMILES: O=C(O)/C=C/c1nc(CSc2c(Cl)cccc2Cl)ccc1OCCc1ccccc1 [TICOLUBANT]
ED50 (Mus musculus [35]): 20 µg
ED50 (Mus musculus [36]): 114 µg
ED50 (Mus musculus [37]): 19 mg/kg

SMILES: CCCc1c(OCCCCc2nnn[nH]2)ccc(C(C)=O)c1O [TOMELUKAST]
Activity (Homo sapiens [38]): 4.6

Source: ChEMBL document CHEMBL1129361, “Modulators of leukotriene biosynthesis and receptor activation” (J Med Chem, 1996)
